Test results: PubChem BioAssay (NCI)
Several values for one entry are separate records, joined by “and”; a condition that tells them apart may be missing. Equal entries are not always repeated.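 Exposure lasted 48 hours, with cells grown in 96-well plates and compounds tested at five concentrations. The concentration for 50% growth inhibition is given as GI50. TGI is the concentration that stops growth completely.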

Columns and labels:
Test in all cases: NCI-60 cell line screen, 48 h
[1] = tested on: RXF 393 renal
[2] = tested on: SK-MEL-28 melanoma
[3] = tested on: M14 melanoma
[4] = tested on: SF-268 CNS
[5] = tested on: CAKI-1 renal
[6] = tested on: U251 CNS
[7] = tested on: EKVX NSCLC
[8] = tested on: OVCAR-5 ovarian
[9] = tested on: HL-60(TB) leukemia
[10] = tested on: SF-539 CNS

Question: With COc1ccc(Cn2cnc3cc(C(=O)Nc4cccc5ccccc45)ccc32)c(OC)c1 as the molecule, how does the GI50 [1] read?
Answer: The GI50 was 0.0355 µM.

Question: What about the TGI [1] of the same molecule?
Answer: Its TGI is greater than 100 µM.

Question: And the GI50 [2]?
Answer: Its GI50 is 1.63 µM.

Question: What about the TGI [2] of the same molecule?
Answer: The TGI was greater than 100 µM.

Question: What about the GI50 [3] of the same molecule?
Answer: Its GI50 is 0.0275 µM.

Question: And the GI50 [4]?
Answer: Its GI50 is 0.104 µM.

Question: What about the TGI [4] of the same molecule?
Answer: Its TGI is greater than 51.7 µM.

Question: What about the GI50 [5] of the same molecule?
Answer: Its GI50 is 0.0387 µM.

Question: And the TGI [5]?
Answer: Its TGI is greater than 100 µM.

Question: And the GI50 [6]?
Answer: The GI50 was 0.0398 µM.

Question: What about the TGI [6] of the same molecule?
Answer: Its TGI is greater than 100 µM.

Question: And the GI50 [7]?
Answer: The GI50 was 0.0654 µM.

Question: And the TGI [7]?
Answer: Its TGI is greater than 100 µM.

Question: What about the GI50 [8] of the same molecule?
Answer: The GI50 was 0.18 µM.

Question: And the TGI [8]?
Answer: The TGI was greater than 100 µM.

Question: What about the GI50 [9] of the same molecule?
Answer: The GI50 was 0.0319 µM.

Question: And the TGI [9]?
Answer: The TGI was 0.145 µM.

Question: What about the GI50 [10] of the same molecule?
Answer: The GI50 was 0.0316 µM.

Question: And the TGI [10]?
Answer: Its TGI is 0.147 µM.

Question: Which GI50 [1] does the source give for COc1cc(OC)c2cc(C(=O)O)c(=O)oc2c1 here?
Answer: The GI50 was greater than 100 µM.

Question: And the TGI [1]?
Answer: The TGI was greater than 100 µM.

Question: What about the GI50 [2] of the same molecule?
Answer: The GI50 was greater than 29.5 µM.

Question: What about the TGI [2] of the same molecule?
Answer: Its TGI is greater than 100 µM.

Question: What about the GI50 [3] of the same molecule?
Answer: The GI50 was greater than 100 µM.

Question: What about the TGI [3] of the same molecule?
Answer: The TGI was greater than 100 µM.

Question: What about the GI50 [4] of the same molecule?
Answer: Its GI50 is greater than 100 µM.

Question: And the TGI [4]?
Answer: The TGI was greater than 100 µM.

Question: What about the GI50 [5] of the same molecule?
Answer: Its GI50 is 61.4 µM.

Question: And the TGI [5]?
Answer: The TGI was greater than 100 µM.

Question: What about the GI50 [6] of the same molecule?
Answer: Its GI50 is greater than 100 µM.

Question: And the TGI [6]?
Answer: The TGI was greater than 100 µM.

Question: And the GI50 [7]?
Answer: The GI50 was greater than 100 µM.

Question: What about the TGI [7] of the same molecule?
Answer: The TGI was greater than 100 µM.

Question: What about the GI50 [8] of the same molecule?
Answer: Its GI50 is greater than 100 µM.

Question: What about the TGI [8] of the same molecule?
Answer: The TGI was greater than 100 µM.

Question: And the GI50 [9]?
Answer: The GI50 was greater than 100 µM.

Question: What about the TGI [9] of the same molecule?
Answer: The TGI was greater than 100 µM.

Question: What about the GI50 [10] of the same molecule?
Answer: The GI50 was greater than 96.2 µM.

Question: What about the TGI [10] of the same molecule?
Answer: The TGI was greater than 100 µM.

Question: Which GI50 [1] does the source give for O=C(Nc1ccc(Cl)cc1)c1ccc([N+](=O)[O-])o1 here?
Answer: The GI50 was 1.34 µM.

Question: What about the TGI [1] of the same molecule?
Answer: Its TGI is 3.42 µM.

Question: What about the GI50 [2] of the same molecule?
Answer: The GI50 was 1.78 µM.

Question: And the TGI [2]?
Answer: Its TGI is 3.79 µM.

Question: And the GI50 [3]?
Answer: The GI50 was 1.99 µM.

Question: And the TGI [3]?
Answer: Its TGI is 4.28 µM.

Question: And the GI50 [4]?
Answer: The GI50 was 2.98 µM.

Question: What about the TGI [4] of the same molecule?
Answer: The TGI was 11.8 µM.

Question: And the GI50 [5]?
Answer: Its GI50 is 2.34 µM.

Question: And the TGI [5]?
Answer: Its TGI is 10.1 µM.

Question: And the GI50 [6]?
Answer: Its GI50 is 1.36 µM.

Question: What about the TGI [6] of the same molecule?
Answer: The TGI was 2.87 µM.

Question: And the GI50 [7]?
Answer: Its GI50 is 3.02 µM.

Question: What about the TGI [7] of the same molecule?
Answer: Its TGI is 12.5 µM.

Question: What about the GI50 [8] of the same molecule?
Answer: The GI50 was 2.37 µM.

Question: What about the TGI [8] of the same molecule?
Answer: The TGI was 5.41 µM.

Question: And the GI50 [9]?
Answer: Its GI50 is 2.63 µM.

Question: What about the TGI [9] of the same molecule?
Answer: The TGI was 7.66 µM.

Question: And the GI50 [10]?
Answer: The GI50 was 2.22 µM.

Question: And the TGI [10]?
Answer: Its TGI is 4.9 µM.

Question: Which results are given for Cc1ccc(-c2nc3c(C(=O)NCCN(C)C)cccc3[nH]2)cc1?
Answer: TGI [1]: 24.1 µM; TGI [2]: 32.4 µM; TGI [3]: 29.2 µM; TGI [4]: 48.9 µM; TGI [5]: > 100 µM; TGI [6]: 61.1 µM; TGI [7]: 69.5 µM; TGI [8]: 45.2 µM; TGI [9]: 34.2 µM; TGI [10]: 23 µM

Question: What does the source list for Nc1nc(Cl)c(N=Nc2ccc(Cl)cc2)c(NCC2(CO)CC(OCc3ccccc3)C2)n1 (stereo not drawn)?
Answer: GI50 [1]: 5.17 µM and > 48.3 µM and 8.18 µM; TGI [1]: 19.7 µM and > 100 µM and 25.6 µM; TGI [2]: > 100 µM and 33.4 µM; TGI [3]: > 100 µM and 18.7 µM; TGI [4]: 61.1 µM and > 100 µM and > 61 µM; GI50 [5]: 0.768 µM; TGI [5]: 3.68 µM and 14.2 µM and 5.52 µM; TGI [6]: 28.5 µM and > 100 µM and 36 µM; GI50 [7]: 2.37 µM and 11 µM and 3.08 µM; GI50 [8]: 13.4 µM and > 100 µM and 12 µM; TGI [8]: > 100 µM and 30.2 µM; GI50 [9]: 3.09 µM; TGI [9]: 29 µM and > 100 µM; GI50 [10]: 13.7 µM and > 100 µM and 12.4 µM; TGI [10]: 43.7 µM and > 100 µM and 33.1 µM

Question: With CN1C(=O)c2cc([N+](=O)[O-])ccc2[C@H]2C(=O)c3cc4c(cc3[C@H]21)OCO4 as the molecule, how does the GI50 [1] read?
Answer: Its GI50 is 0.398 µM.

Question: And the GI50 [2]?
Answer: Its GI50 is 0.25 µM.

Question: What about the TGI [2] of the same molecule?
Answer: The TGI was greater than 32.4 µM.

Question: And the GI50 [3]?
Answer: Its GI50 is less than 0.01 µM.

Question: And the TGI [3]?
Answer: Its TGI is 0.037 µM.

Question: What about the GI50 [4] of the same molecule?
Answer: The GI50 was 0.0243 µM.

Question: What about the TGI [4] of the same molecule?
Answer: Its TGI is 1.68 µM.

Question: What about the GI50 [5] of the same molecule?
Answer: Its GI50 is less than 0.01 µM.

Question: What about the TGI [5] of the same molecule?
Answer: The TGI was 0.228 µM.

Question: What about the GI50 [6] of the same molecule?
Answer: Its GI50 is 0.0191 µM.

Question: What about the TGI [6] of the same molecule?
Answer: The TGI was 0.162 µM.

Question: What about the GI50 [7] of the same molecule?
Answer: The GI50 was 0.993 µM.

Question: And the TGI [7]?
Answer: The TGI was greater than 24.5 µM.

Question: What about the GI50 [8] of the same molecule?
Answer: The GI50 was 0.299 µM.

Question: What about the TGI [8] of the same molecule?
Answer: The TGI was 0.926 µM.

Question: What about the GI50 [9] of the same molecule?
Answer: The GI50 was 0.215 µM.

Question: And the TGI [9]?
Answer: Its TGI is greater than 100 µM.

Question: And the GI50 [10]?
Answer: The GI50 was 0.041 µM.

Question: What about the TGI [10] of the same molecule?
Answer: Its TGI is 0.973 µM.
